According to PubChem BioAssay (NCI):
Where “and” joins values, the source holds several entries; their conditions need not be identical. Equal values may be shown once.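 Exposure lasted 48 hours, with cells grown in 96-well plates and compounds tested at five concentrations. GI50 marks 50% less growth. TGI marks complete inhibition of growth.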

Columns and labels:
Assay in all cases: NCI anticancer screen, dose series, 48 h
BT-549 breast = tested on: BT-549 breast
SW-620 colon = tested on: SW-620 colon
NCI-H522 lung = tested on: NCI-H522 lung
NCI-H460 lung = tested on: NCI-H460 lung
UO-31 renal = tested on: UO-31 renal
MCF7 breast = tested on: MCF7 breast
MDA-MB-231 breast = tested on: MDA-MB-231 breast
HS 578T breast = tested on: HS 578T breast
RXF 393 renal = tested on: RXF 393 renal
SNB-78 CNS = tested on: SNB-78 CNS

CN(CC(=O)O)Cc1c(O)c(Cl)cc(Cl)c1Cl
TGI (BT-549 breast): > 100 µM | TGI (SW-620 colon): > 100 µM | TGI (NCI-H522 lung): > 100 µM | TGI (NCI-H460 lung): 75.4 µM | TGI (UO-31 renal): > 100 µM | TGI (MCF7 breast): > 100 µM | TGI (MDA-MB-231 breast): > 100 µM | TGI (HS 578T breast): > 100 µM | TGI (RXF 393 renal): > 100 µM

OC[C@H]1NC[C@@H](O)[C@@H](O)[C@H]1O
TGI (BT-549 breast): > 100 µM | TGI (SW-620 colon): > 100 µM | TGI (NCI-H460 lung): > 100 µM | TGI (UO-31 renal): > 100 µM | TGI (MCF7 breast): > 100 µM | TGI (MDA-MB-231 breast): > 100 µM | TGI (HS 578T breast): > 100 µM | TGI (RXF 393 renal): > 100 µM

CSc1nc(CO)c(CO)n1C
TGI (SW-620 colon): > 100 µM | TGI (NCI-H522 lung): > 100 µM | TGI (NCI-H460 lung): > 100 µM | TGI (UO-31 renal): > 100 µM | TGI (MCF7 breast): > 100 µM | TGI (SNB-78 CNS): > 100 µM | TGI (RXF 393 renal): > 100 µM

CCCCN1C(=O)c2c(Br)sc(Br)c2C1=O
TGI (BT-549 breast): > 100 µM | TGI (SW-620 colon): 66.2 µM | TGI (NCI-H522 lung): > 100 µM | TGI (NCI-H460 lung): > 100 µM | TGI (UO-31 renal): > 100 µM | TGI (MCF7 breast): > 100 µM | TGI (MDA-MB-231 breast): > 100 µM | TGI (RXF 393 renal): > 100 µM

Cc1[nH]c(=O)[nH]c(=O)c1/C=C/C(=O)NC(CO)CS(=O)CS(C)=O (centres undefined)
TGI (SW-620 colon): 409 µM | TGI (NCI-H522 lung): 32.3 µM | TGI (NCI-H460 lung): 68.1 µM | TGI (UO-31 renal): 130 µM | TGI (MCF7 breast): 125 µM | TGI (SNB-78 CNS): 97.5 µM | TGI (RXF 393 renal): 125 µM

COc1ccccc1CC(C)N (centres undefined)
TGI (SW-620 colon): > 100 µM | TGI (NCI-H522 lung): > 100 µM | TGI (NCI-H460 lung): > 100 µM | TGI (UO-31 renal): > 100 µM | TGI (SNB-78 CNS): > 100 µM | TGI (RXF 393 renal): > 100 µM

COc1ccc(-c2nc3c(nc2-c2ccc(OC)cc2)C(N)=NS(=O)(=O)N3)cc1
TGI (SW-620 colon): > 100 µM | TGI (NCI-H522 lung): > 100 µM | TGI (UO-31 renal): > 100 µM | TGI (RXF 393 renal): > 100 µM

CCOC(=O)Cn1c2ccc(Br)cc2c2nc3ccccc3nc21
TGI (SW-620 colon): > 100 µM | TGI (UO-31 renal): > 100 µM | TGI (MDA-MB-231 breast): > 100 µM | TGI (HS 578T breast): > 100 µM | TGI (RXF 393 renal): > 100 µM

Nc1[nH]c(=S)nc2nc3c(c(-c4ccccc4)c12)CCCC3
TGI (BT-549 breast): > 100 µM | TGI (SW-620 colon): > 100 µM | TGI (NCI-H460 lung): > 100 µM | TGI (UO-31 renal): > 100 µM | TGI (MCF7 breast): > 100 µM | TGI (MDA-MB-231 breast): > 100 µM | TGI (HS 578T breast): > 100 µM

CC1C(=O)CC(c2cccs2)N(N=O)C1c1cccs1 (centres undefined)
TGI (SW-620 colon): > 100 µM | TGI (NCI-H522 lung): > 100 µM | TGI (NCI-H460 lung): > 100 µM | TGI (UO-31 renal): > 100 µM | TGI (MCF7 breast): 88.5 µM | TGI (SNB-78 CNS): > 85.2 µM | TGI (RXF 393 renal): 81.1 µM

COC(=O)C1=C(C)N2CCSC2(C)C(C(=O)OC)C1c1cccc(Cl)c1 (centres undefined)
TGI (SW-620 colon): > 100 µM | TGI (NCI-H460 lung): 74.5 µM | TGI (UO-31 renal): 38.3 µM | TGI (RXF 393 renal): 53.5 µM

NC(CCOCCP(=O)(O)CCC1C=CC=CC1)C(=O)O (centres undefined)
TGI (BT-549 breast): > 100 µM | TGI (SW-620 colon): > 100 µM | TGI (NCI-H522 lung): > 100 µM | TGI (NCI-H460 lung): > 100 µM | TGI (UO-31 renal): > 100 µM | TGI (MCF7 breast): > 100 µM | TGI (MDA-MB-231 breast): > 100 µM | TGI (HS 578T breast): > 100 µM | TGI (RXF 393 renal): > 100 µM

CCN(CC)CC[n+]1ccc2c(C)c3[nH]c4ccc(O)cc4c3c(C)c2c1
TGI (BT-549 breast): 34.3 µM | TGI (SW-620 colon): 93.1 µM and 88.3 µM | GI50 (NCI-H522 lung): 1.56 µM | TGI (NCI-H522 lung): 10.7 µM and 8.66 µM | GI50 (NCI-H460 lung): 0.147 µM | TGI (NCI-H460 lung): 13.3 µM and 3.45 µM | GI50 (UO-31 renal): 20.6 µM | TGI (UO-31 renal): > 96.1 µM and 150 µM | GI50 (MCF7 breast): 1.74 µM | TGI (MCF7 breast): 34.5 µM and 80.6 µM | GI50 (SNB-78 CNS): 5.71 µM | TGI (SNB-78 CNS): 44.1 µM and 59.5 µM | TGI (MDA-MB-231 breast): 36.6 µM | TGI (HS 578T breast): 15.8 µM | GI50 (RXF 393 renal): 13.9 µM | TGI (RXF 393 renal): 56.5 µM and 57.2 µM

CCc1n[nH]c(=O)n1/N=C(\C)c1ccc([N+](=O)[O-])cc1
TGI (BT-549 breast): > 100 µM | TGI (SW-620 colon): > 100 µM | TGI (NCI-H460 lung): > 100 µM | TGI (UO-31 renal): > 100 µM | TGI (MCF7 breast): > 100 µM | TGI (MDA-MB-231 breast): > 100 µM | TGI (HS 578T breast): > 100 µM | TGI (RXF 393 renal): > 100 µM

CCOC(=O)CCC(C(=O)OCC)n1nc2ccc(Nc3c(C)[n+]([O-])c4cc(F)c(OCC)cc4[n+]3[O-])cc2n1 (centres undefined)
TGI (BT-549 breast): > 100 µM | TGI (SW-620 colon): > 100 µM | TGI (NCI-H522 lung): > 100 µM | TGI (NCI-H460 lung): > 100 µM | TGI (UO-31 renal): > 100 µM | TGI (MCF7 breast): > 100 µM | TGI (HS 578T breast): 90.7 µM | TGI (RXF 393 renal): 32.5 µM

N#CC1=C2SCCN2C(=O)C(C#N)C12CCCCC2 (centres undefined)
TGI (BT-549 breast): > 100 µM | TGI (SW-620 colon): > 100 µM | TGI (NCI-H522 lung): > 100 µM | TGI (NCI-H460 lung): > 100 µM | TGI (UO-31 renal): > 100 µM | TGI (MCF7 breast): > 100 µM | TGI (MDA-MB-231 breast): > 100 µM | TGI (RXF 393 renal): > 100 µM

COc1ccc(NC(C)=O)cc1N1C(=O)/C(=C\c2ccccc2)SC1c1cc(OC)c(OC)c(OC)c1 (centres undefined)
TGI (BT-549 breast): > 100 µM | TGI (SW-620 colon): > 100 µM | TGI (NCI-H522 lung): 35.4 µM | TGI (NCI-H460 lung): 44.5 µM | TGI (UO-31 renal): > 100 µM | TGI (MCF7 breast): > 100 µM | TGI (MDA-MB-231 breast): > 100 µM | TGI (RXF 393 renal): > 100 µM

CN(C)CCNC(=O)c1cc(Cl)cc2cc3ccccc3nc12
TGI (SW-620 colon): 7.02 µM | TGI (NCI-H460 lung): 2.41 µM | TGI (UO-31 renal): 4.12 µM | TGI (MCF7 breast): 4.53 µM | TGI (SNB-78 CNS): 7.56 µM | TGI (RXF 393 renal): 2.81 µM

C=C(C)[C@@H]1CCC2=C[C@H](C/C(C)=C\C3=CC(C)=C(O3)[C@H]1O)OC2=O
TGI (BT-549 breast): > 100 µM | TGI (SW-620 colon): > 100 µM | TGI (NCI-H522 lung): > 100 µM | TGI (NCI-H460 lung): > 100 µM | TGI (UO-31 renal): > 100 µM | TGI (MCF7 breast): > 100 µM | TGI (MDA-MB-231 breast): 98.8 µM | TGI (HS 578T breast): > 100 µM | TGI (RXF 393 renal): > 100 µM
